Measurements from article PMC5291303 (Science translational medicine, 2016).

Assays:
[1] = tested on: MIA PaCa-2 model of pancreatic ductal adenocarcinoma; assay: MIA PaCa-2 subcutaneous xenograft efficacy; format: in vivo, mice
[2] = Toxicity studies to determine NOAEL; format: in vivo, mice; details: plasma AUC at NOAEL vs at MED
[3] = tested on: MDA-MB-231-LM2 breast cancer metastases; assay: MDA-MB-231-LM2 experimental lung metastasis model; format: in vivo, SCID/beige mice; details: for Tumor-free animals: up to 106 days after initial treatment
[4] = tested on: RS4;11 model of adult Philadelphia chromosome–negative ALL; assay: RS4; format: in vivo, mice; details: P = 0.0028 tumor cells; P = 0.0024 survival
[5] = tested on: human pancreatic cancer PDX; assay: Pancreatic cancer patient-derived xenograft; format: in vivo, SCID/beige mice; details: for Effect on tumor growth: gemcitabine 100 mg/m^2, DZ-2384 36 mg/m^2, alone or combined
[6] = tested on: Rgs16∷GFP;KIC pancreatic model; assay: Rgs16::GFP; format: in vivo, mice
[7] = tested on: caudal, digital and tibial nerves; dorsal root ganglia, sciatic nerve; assay: Peripheral neuropathy study; format: in vivo, Sprague-Dawley rats; details: for Caudal and digital NCV / Tibial nerve onset latency / Caudal and digital NCV after recovery / Histology of dorsal root ganglia and sciatic nerve: at MTD (DZ-2384 30 mg/m^2, docetaxel 120 mg/m^2)
[8] = Pharmacokinetics in rats; format: in vivo, Sprague-Dawley rats; details: rat; 12 mg/m^2
[9] = tested on: H1299 cells; assay: Growth inhibition of H1299 cells; format: cell-based
[10] = tested on: HeLa cells; assay: 3-day cell viability assay, HeLa; format: cell-based
[11] = tested on: U-2 osteosarcoma (OS) cells; assay: 3-day viability assay, U-2 OS; format: cell-based
[12] = tested on: E18 rat primary cortical neurons; assay: IC50 in primary cortical neurons; format: cell-based
[13] = tested on: primary rat cortical neurons; assay: Axonal microtubule immunostaining in primary neurons; format: cell-based; details: 1 hour; 0.3 to 100 nM; DZ-2384 up to 100 nM, vinorelbine starting at 0.3 nM
[14] = tested on: microtubules in LLC-PK1 cells expressing GFP–α-tubulin; assay: Microtubule dynamic instability in live cells; format: cell-based; details: IC80: 24 nM DZ-2384, 11 nM vinorelbine; mean ± SD
[15] = tested on: tubulin; assay: Surface plasmon resonance binding and competition; details: tubulin (3 μM) preincubated with competitor
[16] = tested on: microtubule polymer mass in H1299 cells; assay: Microtubule sedimentation assay; format: cell-based; details: 4 hours, increasing concentrations
[17] = tested on: purified tubulin; assay: Reconstituted single molecule assay for microtubule dynamics; format: biochemical; details: for Growth and shrinkage rates: 100 nM DZ-2384
[18] = tested on: purified tubulin; assay: Electron microscopy of tubulin oligomer curvature; format: biochemical; details: 10 μM; compared with vinblastine
[19] = tested on: H1299 cells; assay: DNA content and caspase-3 activation in H1299 cells; format: cell-based
[20] = tested on: U-2 OS osteosarcoma cells; assay: Interphase microtubule immunostaining in U-2 OS cells; format: cell-based; details: unsynchronized, IC80 (300 nM each), 2 hours
[21] = tested on: U-2 OS cells stably expressing an EB3-mCherry fusion protein; assay: Growing microtubule ends in EB3-mCherry U-2 OS cells; format: cell-based; details: equipotent (IC80) concentrations
[22] = all doses tested, each xenograft model
[23] = Plasma exposure by LC-MS/MS at MED and NOAEL doses
[24] = tested on: tubulin; details: cited from earlier work
[25] = in vivo; details: mouse
[26] = relative to untreated microtubules

CC(C)[C@H](O)C(=O)N[C@H]1Cc2ccc3c(c2)[C@]2(C4=C(c5nc(CO)co5)N=C(O4)[C@H](C(C)(C)C)NC1=O)c1cc(F)ccc1N[C@@H]2O3 [DZ-2384]
Tumor-free animals ([1]; 9 mg/m^2, ~3 months after treatment): all mice were tumor-free | Tumor response ([1]; 4 weekly bolus i.v. administrations): complete tumor regression | Safety margin (range over MIA PaCa-2 and HT-29 models) [2]: 24.4 to 53.5 | Tumor-free animals ([3]; 4.5 mg/m^2): 1 of 5 | Tumor-free animals ([3]; 18 mg/m^2): 2 of 8 | Survival ([3]; all treated groups, P < 0.0001 vs vehicle): significantly increased the survival | Effect on lung metastases ([3]; starting at the lowest dose tested): regression of all lung metastases | Dose reducing circulating tumor cells (day 23) and increasing survival [4]: ≤ 0.7 mg/m^2 | Deaths ([5]; day 29): One animal inexplicably died | Effect on tumor growth [5]: insignificant effects on tumor growth | Body weight loss after the first dose ([5]; then quickly recovered): 11% | Tolerability of 30 mg/m^2 ([6]; administered on P23 (no mortality)): tolerated | NCV and onset latency ([7]; day 24, 12 mg/m^2, vs age-matched controls): normal NCV and onset latency | Caudal and digital NCV ([7]; day 24): slowing of the caudal and distal digital NCV | Tibial nerve onset latency ([7]; day 24): the tibial nerve was unaffected | Histology of lumbar dorsal root ganglia and sciatic nerve ([7]; day 44, 12 mg/m^2): no changes | Caudal and digital NCV after recovery ([7]; day 44): remained slow | Histology of dorsal root ganglia and sciatic nerve ([7]; day 44): did not find histological evidence of neurotoxicity | AUC [8]: 4371 ng·h/mL | IC50 ([9]; H1299 cells): 0.012 µM | IC80 ([10]; 3-day cell viability assay): 0.004 µM | IC80 ([11]; U-2 OS, 3-day): 0.3 µM | IC50 [12]: 0.043 µM | Axonal morphology, width and tubulin staining [13]: minimal qualitative differences | %Time per phase Growth [14]: 42.1 ± 13.1 (0.9109) % | %Time per phase Pause [14]: 32.7 ± 12.1 (0.7422) % | %Time per phase Shrink [14]: 25.2 ± 1.4 (0.3079) % | Dynamicity [14]: 10.4 ±1.4 (0.0335) μm/min | Growth Distance [14]: 2.4 ± 0.3 (0.0631) μm | Growth Duration [14]: 19.0 ± 6.2 (0.2666) s | Growth Rate [14]: 8.3 ±1.6 (0.0164) μm/min | Shrink Distance [14]: 4.7 ± 0.9 (0.3899) μm | Shrink Duration [14]: 10.6 ± 1.3 (0.6087) s | Shrink Rate [14]: 27.7 ± 2.2 (0.6081) μm/min | Competition of tubulin binding to biotinylated DZ-2384 surfaces [15]: inhibited its binding | Microtubule polymer mass [16]: decrease in microtubule polymer mass | Growth and shrinkage rates [17, 26]: decreased by about twofold | Rescue frequency ([17]; P = 0.0236 at 50 nM): twice the rate seen with vinorelbine | Catastrophe frequencies [17, 26]: slightly increased | Protofilament curvature (κ) [18]: straighter | Start of accumulation in G2-M phase [19]: 4 to 8 h | Start of apoptosis (procaspase-3 cleavage) ([19]; after treatment): 16 h | Interphase microtubule network [20]: microtubules were present | Number of growing microtubules [21]: decreased the number of growing microtubules | Body weight loss [22]: less than 10% | MED Exposure [AUC0-α] ([23]; mouse plasma AUC at the MED of the HT-29 model): 344 ng·h/mL | MED Exposure [AUC0-α] ([23]; mouse plasma AUC at the MED of the MIA PaCa-2 model): 157 ng·h/mL | NOAEL Exposure [AUC0-α] ([23]; mouse plasma AUC at the NOAEL dose): 8398 ng·h/mL

CC(=O)O[C@@]12CO[C@@H]1C[C@H](O)[C@@]1(C)C(=O)[C@H](O)C3=C(C)[C@@H](OC(=O)[C@H](O)[C@@H](NC(=O)OC(C)(C)C)c4ccccc4)C[C@@](O)([C@@H](OC(=O)c4ccccc4)[C@H]21)C3(C)C [docetaxel, reference compound]
Caudal and digital NCV ([7]; day 24): decrease in NCV in caudal and digital nerves | Tibial nerve onset latency ([7]; day 24): increase in onset latency in tibial nerves | Caudal and digital NCV after recovery ([7]; day 44): no improvement in either caudal or digital NCV | Histology of dorsal root ganglia and sciatic nerve ([7]; day 44): incomplete recovery of the damaged dorsal root ganglia | Microtubule polymer mass [16]: increased microtubule polymer mass

CCC1=C[C@@H]2CN(C1)Cc1c([nH]c3ccccc13)[C@@](C(=O)OC)(c1cc3c(cc1OC)N(C)[C@H]1[C@@](O)(C(=O)OC)[C@H](OC(C)=O)[C@]4(CC)C=CCN5CC[C@]31[C@@H]54)C2 [Vinorelbine, vinorelbine, reference compound]
Safety margin (range over MIA PaCa-2 and HT-29 models) [2]: 0.7 to 1.0 | IC50 ([9]; Homo sapiens, NCI-H1299): 0.015 µM | IC80 ([10]; Homo sapiens, 72 h): 0.011 µM | IC80 ([11]; Homo sapiens, U2OS, 72 h): 0.3 µM | Axonal morphology, width and tubulin staining [13]: thinner and/or fragmented axons | %Time per phase Growth [14]: 13.1 ± 7.3 (0.0074) % | %Time per phase Pause [14]: 48.4 ± 8.1 (0.0141) % | %Time per phase Shrink [14]: 38.6 ± 8.6 (0.1068) % | Dynamicity [14]: 10.2 ±1.3 (0.0165) μm/min | Growth Distance [14]: 2.1 ± 0.2 (0.0036) μm | Growth Duration [14]: 17.5 ± 5.8 (0.4242) s | Shrink Distance [14]: 6.4 ± 1.4 (0.2345) μm | Shrink Duration [14]: 17.6 ± 6.6 (0.1570) s | Shrink Rate [14]: 24.6 ± 3.5 (0.1242) μm/min | Competition of tubulin binding to biotinylated DZ-2384 surfaces [15]: blocked its binding | Microtubule polymer mass [16]: like with vinorelbine | Growth and shrinkage rates [17, 26]: Comparable growth and shrinkage rate decreases | Interphase microtubule network [20]: intact microtubules were difficult to observe | Number of growing microtubules [21]: vastly decreasing the number of growing microtubules | Body weight loss [22]: less than 10% | Affinity compared to vinblastine [24]: lower affinity | AUC [25]: 3380 ng·h/mL | AUC ([23]; mouse, in vivo, 30 mg/m^2): 2310 ng·h/mL

Nc1ccn([C@@H]2O[C@H](CO)[C@@H](O)C2(F)F)c(=O)n1 [gemcitabine, reference compound]
Effect on tumor growth [5]: insignificant effects on tumor growth | Clinical observations ([6]; weanling mice): not with gemcitabine alone
